According to patent US20240254119A1 (THIRD HARMONIC BIO, INC., priority 2022, published 2024):
Like-named read-outs stand apart in the source and are kept apart here.

Assay: Three time point assay for plasma, brain and testes distribution after oral dosing
Assay type: in vivo, rat
Details: for Brain concentration / Kp brain/plasma / Kp testes/plasma / Plasma concentration / Testes concentration / concentration at 0.5 h / Kp at 0.5 h / concentration at 2 h / Kp at 2 h / concentration at 7 h / Kp at 7 h: rat, oral dosing; for concentration at 0.5 h / Kp at 0.5 h / concentration at 2 h / Kp at 2 h / concentration at 7 h / Kp at 7 h: male, SD, 10 mg/kg; for brain penetration as indicated by Kp (Cbrain/Cplasma): result in words
Method: Exemplary compounds were tested for distribution in plasma, brain and testes tissue following oral dosing of the compounds in rats. Procedures and results are described below.
Male SD Rats were group-housed (up to four animals/sex/cage) in polysulfone cages with certified aspen wood bedding during acclimation and study period.
Certified rodent diet and water was provided to all animals ad libitum, unless fasting for study procedures.
Appropriate amount of test article was accurately weighed and mixed with an appropriate volume of vehicle to get a clear solution or a uniform suspension; vortexing or sonication in water bath may also be need. Animals were dosed within four hours after the formulation is prepared.
For PO dosing, the dose formulation was administered via oral gavage following facility SOPs. The dose volume was determined by the animals' body weight collected on the morning of dosing day. The dose was 10 mg/kg.
Each blood collection (about 1 mL per time point at one or more of 0.5 h, 2 h, 3 h, 5.3 h, and 7 h) was performed from jugular vein or other suitable site of each animal into pre-chilled commercial EDTA-K2 tubes and placed on wet ice until centrifugation.
Blood samples were processed for plasma by centrifugation at approximately 4° C., 3,200 g for 10 min. Plasma was collected respectively and transferred into pre-labeled 96 well plate or polypropylene tubes, quick frozen over dry ice and kept at −60° C. or lower until LC-MS/MS analysis.
Rat brain was perfused with PBS to remove blood before harvest.
After perfusion, brain and testis were homogenized using homogenizing buffer (15 mM PBS (pH7.4):MeOH=2:1) at the ratio of 1:9 (1 g tissue with 9 mL buffer, the dilution ratio is 10). The brain homogenate was kept at −60° C. or lower until LC-MS/MS analysis. General sample processing procedure (brain homogenate & testis homogenate) using 96-well plate: • 1). An aliquot of 40 μL unknown sample, calibration standard, quality control and dilution quality control (if have), single blank, and double blank sample was added to the 96-well plate respectively; • 2). Each sample (except the double blank) was quenched with 400 μL of IS1 respectively (double blank sample was quenched with 400 μL of I), and then the mixture was vortex-mixed for 10 min at 800 rpm and centrifuged for 15 min at 3220×g, 4° C.; • 3). An aliquot of 50 μL supernatant was transferred to another clean 96-well plate and centrifuged for 5 min at 3220×g, 4° C., then the supernatant was directly injected for LC-MS/MS analysis.
• 1. A LC-MS/MS method for the quantitative determination of test compound in biological matrix was developed under Non-GLP compliance. • 2. A calibration curve with at least 6 non-zero calibration standards was applied for the method including LLOQ. • 3. A set of QCs consisting of low, middle, and high concentrations were applied for the method. • 4. N in 1 cassette LC-MS/MS method was developed for samples coming from different studies and the interference among all cassette analytes was evaluated during the method development. • 5. Cassette administration assay was performed if the mass difference (Δmass) among different analytes was more than 4 Da. In this case, interference evaluation was not necessary.
• 1. If sample number within a batch was ≤12, at least one set of standard curve separated with two parts through begin and end of the sequence, was included in the run, and QCs were not required. The recommended injection order was C8, C6, C4, C2, study samples, C7, C5, C3, C1. • 2. If sample number within a batch was >12, one standard curve and two sets of QCs with low, middle and high concentrations were applied for bioanalysis. Meanwhile, QCs number should be more than 5% of study sample number. • 3. Samples with the same types of matrix in different studies were quantified in one analysis run by using the developed N in 1 cassette LC-MS/MS method. • 4. […]

SMILES | Brain concentration (time point 2 h) [ng/g] | Kp brain/plasma (time point 2 h) | Kp testes/plasma (time point 2 h) | Plasma concentration (time point 2 h) [ng/mL] | Testes concentration (time point 2 h) [ng/g] | further results
Cc1ccc(-c2noc(C3(C)CC(F)(F)CN3)n2)cc1NC(=O)c1cnc2ccccn12 (racemic) [Compound I-328] | 25.4 | 0.42 | 0.93 | 60.3 | 56.2 | 
Cc1ccc(-c2noc(C3CCS(=O)(=O)N3)n2)cc1NC(=O)c1cnc2ccccn12 (racemic) [Compound I-330] | 0 |  | 0.86 | 117 | 100 | 
Cc1ccc(-c2noc(CC(C)O)n2)cc1NC(=O)c1cnc2ccccn12 (racemic) [Compound I-363] | 46 | 0.06 | 0.13 | 815 | 104 | 
Cc1ccc(-c2noc(C3CCS(=O)(=O)C3)n2)cc1NC(=O)c1cnc2ccccn12 (racemic) [Compound I-389] | 63 | 0.03 | 0.91 | 2030 | 1830 | 
COc1ccn2c(C(=O)Nc3cc(-c4noc(CC(O)C(F)F)n4)ccc3C)cnc2c1 (single isomer, unassigned) [Compound I-76] |  |  |  |  |  | Brain concentration (time point 3 h): 55.9 ng/g; Kp brain/plasma (time point 3 h): 0.09; Kp testes/plasma (time point 3 h): 0.41; Plasma concentration (time point 3 h): 598 ng/mL; Testes concentration (time point 3 h): 246 ng/g
Cc1ccc(-c2noc(C(C)NS(C)(=O)=O)n2)cc1NC(=O)c1cnc2ccccn12 (single isomer, unassigned) [Compound I-237] | 0 |  | 0.18 | 1090 | 192 | 
Cc1ccc(-c2noc(C(C)NS(C)(=O)=O)n2)cc1NC(=O)c1cnc2ccccn12 (single isomer, unassigned) [Compound I-238] | 0 |  | 0.17 | 791 | 131 | 
Cc1ccc(-c2noc([C@H]3C[C@@H]3F)n2)cc1NC(=O)c1cnc2cc(COCC(C)(C)O)ccn12 [Compound I-71, N-[5-[5-[(1R,2S)-2-fluorocyclopropyl]-1,2,4-oxadiazol-3-yl]-2-methyl-phenyl]-7-[(2-hydroxy-2-methyl-propoxy)methyl]imidazo[1,2-a]pyridine-3-carboxamide] |  |  |  |  |  | concentration at 0.5 h (brain, time point 0.5 h, read-out: Brain concentration): 91.8 ng/g; Kp at 0.5 h (brain, time point 0.5 h, read-out: Kp brain/plasma): 0.05; concentration at 2 h (brain, time point 2 h, read-out: Brain concentration): 169 ng/g; Kp at 2 h (brain, time point 2 h, read-out: Kp brain/plasma): 0.05; concentration at 7 h (brain, time point 7 h, read-out: Brain concentration): 126 ng/g; Kp at 7 h (brain, time point 7 h, read-out: Kp brain/plasma): 0.03; concentration at 0.5 h (plasma, time point 0.5 h, read-out: Plasma concentration): 1810 ng/mL; concentration at 2 h (plasma, time point 2 h, read-out: Plasma concentration): 3420 ng/mL; concentration at 7 h (plasma, time point 7 h, read-out: Plasma concentration): 4110 ng/mL; Kp at 0.5 h (testes, time point 0.5 h, read-out: Kp testes/plasma): 0.09; concentration at 0.5 h (testes, time point 0.5 h, read-out: Testes concentration): 166 ng/g; Kp at 2 h (testes, time point 2 h, read-out: Kp testes/plasma): 0.19; concentration at 2 h (testes, time point 2 h, read-out: Testes concentration): 653 ng/g; Kp at 7 h (testes, time point 7 h, read-out: Kp testes/plasma): 0.18; concentration at 7 h (testes, time point 7 h, read-out: Testes concentration): 739 ng/g; brain penetration as indicated by Kp (Cbrain/Cplasma): do not significantly penetrate the brain or minimally penetrate the brain
COCCOCc1ccn2c(C(=O)Nc3cc(-c4noc([C@H]5C[C@@H]5F)n4)ccc3C)cnc2c1 [Compound I-84] | 400 | 0.07 | 0.11 | 5900 | 655 | brain penetration as indicated by Kp (Cbrain/Cplasma): do not significantly penetrate the brain or minimally penetrate the brain
Cc1ccc(-c2noc([C@H]3C[C@@H]3F)n2)cc1NC(=O)c1cnc2cc(OC(F)(F)F)ccn12 [Compound I-87] | 954 | 0.68 | 0.71 | 1480 | 989 | Brain concentration (time point 0.5 h): 248 ng/g; Kp brain/plasma (time point 0.5 h): 0.60; Kp testes/plasma (time point 0.5 h): 0.38; Plasma concentration (time point 0.5 h): 454 ng/mL; Testes concentration (time point 0.5 h): 159 ng/g; Brain concentration (time point 7 h): 1730 ng/g; Kp brain/plasma (time point 7 h): 0.36; Kp testes/plasma (time point 7 h): 0.34; Plasma concentration (time point 7 h): 4970 ng/mL; Testes concentration (time point 7 h): 1650 ng/g
Cc1ccc(-c2noc([C@H]3C[C@@H]3F)n2)cc1NC(=O)c1cnc2cc(OC(C)C)ccn12 [Compound I-88] | 1200 | 0.14 | 0.16 | 8390 | 1330 | Brain concentration (time point 0.5 h): 722 ng/g; Kp brain/plasma (time point 0.5 h): 0.27; Kp testes/plasma (time point 0.5 h): 0.19; Plasma concentration (time point 0.5 h): 2640 ng/mL; Testes concentration (time point 0.5 h): 480 ng/g; Brain concentration (time point 7 h): 1250 ng/g; Kp brain/plasma (time point 7 h): 0.15; Kp testes/plasma (time point 7 h): 0.21; Plasma concentration (time point 7 h): 9200 ng/mL; Testes concentration (time point 7 h): 1950 ng/g
Cc1ccc(-c2noc(CC(O)C(F)F)n2)cc1NC(=O)c1cnc2ccccn12 (stereo not drawn) [Compound I-114] | 113 | 0.07 | 0.29 | 1680 | 482 | Brain concentration (time point 0.5 h): 106 ng/g; Kp brain/plasma (time point 0.5 h): 0.07; Kp testes/plasma (time point 0.5 h): 0.17; Plasma concentration (time point 0.5 h): 1540 ng/mL; Testes concentration (time point 0.5 h): 256 ng/g; Brain concentration (time point 7 h): 45.5 ng/g; Kp brain/plasma (time point 7 h): 0.07; Kp testes/plasma (time point 7 h): 0.38; Plasma concentration (time point 7 h): 693 ng/mL; Testes concentration (time point 7 h): 248 ng/g; brain penetration as indicated by Kp (Cbrain/Cplasma): do not significantly penetrate the brain or minimally penetrate the brain
COC(=O)N1CC(c2nc(-c3ccc(C(F)F)c(NC(=O)c4cnc5ccccn45)c3)no2)C1 [Compound I-225] | 506 | 0.15 | 0.33 | 3420 | 1140 | 
Cc1ccc(-c2noc([C@@H](C)O)n2)cc1NC(=O)c1cnc2ccccn12 [Compound I-270] | 25.6 | 0.06 | 0.09 | 422 | 39.3 | 
Cc1ccc(-c2noc([C@H](C)O)n2)cc1NC(=O)c1cnc2ccccn12 [Compound I-271] | 325 | 0.18 | 0.58 | 1760 | 1020 | 
Cc1ccc(-c2noc([C@H]3C[C@@H]3F)n2)cc1NC(=O)c1cnc2cc(N3CCC3)ccn12 [Compound I-295] | 377 | 0.18 | 0.49 | 2080 | 1020 | 
